Experimental data: patent EP4603105A1, “PHARMACEUTICAL COMPOSITION CONTAINING CYCLIC COMPOUND HAVING SELECTIVE KRAS INHIBITORY EFFECT AGAINST HRAS AND NRAS” (CHUGAI SEIYAKU KABUSHIKI KAISHA, priority 2022, dated 2024)
*1 amine or outer side, *2 acyl side, *3 side chain or, on linkers, in order; H or OH if unused. Where a SMILES comes first, the peptide text is derived from it. Bridges are numbered along the chain shown (N, C = ends). [ ]: non-standard residue; d: D form. The star is where a group is joined. hPhe(3-Cl-4-CF3) = N[C@@H](CCc1ccc(C(F)(F)F)c(Cl)c1)C(=O)O; NPrPhe(4-CF3) = CCCN[C@@H](Cc1ccc(C(F)(F)F)cc1)C(=O)O; X8 = CCCN([C@@H](COCCC(C)C)C(=O)[*:2])[*:1]; Morpholine(3S-CO) = O=C(O)[C@@H]1COCCN1; NMeGly(cPent) = CN[C@H](C(=O)O)C1CCCC1; Pro(4,4-F2) = O=C(O)[C@@H]1CC(F)(F)CN1; NMeD = CN[C@@H](CC(=O)O)C(=O)O; NMeL = CN[C@@H](CC(C)C)C(=O)O; Morpholide = C1CN(*)CCO1; NMeA = CN[C@@H](C)C(=O)O; Ac5c = NC1(C(=O)O)CCCC1; Aze = O=C(O)[C@@H]1CCN1; Ac4c = NC1(C(=O)O)CCC1; Sar = CNCC(=O)O

Tests used:
[1] = system: human lung cancer strain NCI-H441; assay type: cell-based
How it was run: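 Proliferation was scored by […] measured after the reagent was added to cultures kept at 37°C in 5% carbon dioxide.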

HRAS wild-type protein = HRAS wild-type protein (Homo sapiens, UniProt P01112); assay: Binding to HRAS by surface plasmon resonance (SPR), KD and KD ratio to KRAS
How it was run: (§1)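 Single-cycle kinetics on GDP-loaded biotin-Avi RAS captured to ~100–300 RU; 75 s ascending injections, 100 µL/min, 30°C. HBS pH 7.4 + 10 mM MgCl2/10 µM GDP/4% DMSO. 1:1 fit, KD.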

[2] = target: GDP-bound NRAS wild-type protein (Homo sapiens, UniProt P01111); assay: Binding to NRAS by surface plasmon resonance (SPR), KD and KD ratio to KRAS
How it was run: as §1

[3] = ratio of the KD value with respect to HRAS wild-type protein to the KD value with respect to KRAS
[4] = ratio of the KD value with respect to GDP-bound NRAS wild-type protein to the KD value with respect to KRAS
[5] = ratio of KD value for HRAS wild-type protein to KD value for KRAS (SPR)
[6] = ratio of KD value for GDP-bound NRAS wild-type protein to KD value for KRAS (SPR)
[7] = ratio of KD for HRAS wild-type protein to KD for KRAS
[8] = ratio of KD for GDP-bound NRAS wild-type protein to KD for KRAS

Sequence of HRAS wild-type protein (P01112 whole entry): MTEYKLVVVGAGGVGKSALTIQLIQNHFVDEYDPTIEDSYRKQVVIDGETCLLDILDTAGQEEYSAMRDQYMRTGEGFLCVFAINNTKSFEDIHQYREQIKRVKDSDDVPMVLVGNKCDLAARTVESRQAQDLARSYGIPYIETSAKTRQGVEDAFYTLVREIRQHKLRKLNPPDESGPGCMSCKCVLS
Sequence of GDP-bound NRAS wild-type protein (P01111 whole entry): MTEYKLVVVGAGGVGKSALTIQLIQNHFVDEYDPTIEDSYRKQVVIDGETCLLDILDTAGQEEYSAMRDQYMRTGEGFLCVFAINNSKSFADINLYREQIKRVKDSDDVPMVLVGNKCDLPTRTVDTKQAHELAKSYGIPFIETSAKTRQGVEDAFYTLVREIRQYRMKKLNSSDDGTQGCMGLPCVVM

| SMILES | IC50 [1] | HRAS /KRAS (HRAS wild-type protein; [3]) | NRAS /KRAS [2, 4] | HRAS /KRAS (HRAS wild-type protein; [5]) | NRAS /KRAS [2, 6] | HRAS /KRAS (HRAS wild-type protein; [7]) | NRAS /KRAS [2, 8] |
| --- | --- | --- | --- | --- | --- | --- | --- |
| CCO[C@@H]1C[C@H]2C(=O)NC3(CC(C)(C)C3)C(=O)N(C)[C@@H](C3CCCC3)C(=O)N(C)[C@H](C(=O)N(C)C)CC(=O)N(C)[C@@H](CC(C)C)C(=O)N[C@@H]([C@@H](C)CC)C(=O)N(C)CC(=O)N(C)[C@H]3C/C=C\CCN(C3=O)[C@@H](Cc3ccc(C(F)(F)F)cc3)C(=O)N(C)CC(=O)N[C@@H](CCc3ccc(C(F)(F)F)c(F)c3)C(=O)N2C1 [PP1931] | 9.5 nM | B (a compound having 3 or more and less than 10 is denoted as B) | A (a compound having 10 or more and less than 20 is denoted as A) |  |  |  |  |
| CC[C@H](C)[C@@H]1NC(=O)[C@H](CC(C)C)N(C)C(=O)C[C@@H](C(=O)N(C)C)N(C)C(=O)[C@H](C2CCCC2)N(C)C(=O)C2(CCC2)NC(=O)[C@@H]2C[C@@H](C)CN2C(=O)[C@H](CCc2cc(F)c(C(F)(F)F)c(F)c2)NC(=O)CN(C)C(=O)[C@H](Cc2ccc(C)cc2)N2CC/C=C\C[C@@H](C2=O)N(C)C(=O)CN(C)C1=O [PP1866] | 11.1 nM |  |  | B (a compound having 3 or more and less than 10 is denoted as B) | A (a compound having 10 or more and less than 20 is denoted as A) |  |  |
| CCCN1C(=O)CN(C)C(=O)CN(C)C(=O)[C@H]([C@@H](C)CC)NC(=O)[C@H](CC(C)C)N(C)C(=O)C[C@@H](C(=O)N(C)C)NC(=O)[C@H](C2CCCC2)N(C)C(=O)C2(CCC2)NC(=O)[C@@H]2CC(F)(F)CN2C(=O)[C@H](CCc2ccc(C(F)(F)F)c(Cl)c2)NC(=O)CN(C)C(=O)[C@@H]1Cc1ccc(C(F)(F)F)cc1 [PP0358] ([NMeL]I[Sar][Sar][NPrPhe(4-CF3)][Sar][hPhe(3-Cl-4-CF3)][Pro(4,4-F2)][Ac4c][NMeGly(cPent)]D-NMe2; lactam N-11) | 34.8 nM |  |  |  |  | C (A compound having a KD ratio of 0.1 or more and less than 3 is denoted as C) | B (a compound having 3 or more and less than 10 is denoted as B) |
| CCCN1C(=O)[C@@H]2CCN2C(=O)[C@H](C)N(C)C(=O)[C@H]([C@@H](C)CC)NC(=O)[C@H](CC(C)C)N(C)C(=O)C[C@@H](C(=O)N(C)C)N(C)C(=O)[C@H](C2CCCC2)N(C)C(=O)C2(CCC2)NC(=O)[C@@H]2CCCN2C(=O)[C@H](CCc2ccc(C(F)(F)F)c(Cl)c2)NC(=O)CN(C)C(=O)[C@@H]1COCCC(C)C [PP1820] ([NMeL]I[NMeA][Aze][X8][Sar][hPhe(3-Cl-4-CF3)]P[Ac4c][NMeGly(cPent)][NMeD]-NMe2; lactam N-11) | 40.7 nM |  |  | C (A compound having a KD ratio of 0.1 or more and less than 3 is denoted as C) | C (A compound having a KD ratio of 0.1 or more and less than 3 is denoted as C) |  |  |
| CCC[C@H]1C(=O)N[C@@H]([C@@H](C)CC)C(=O)N(C)CC(=O)N(C)[C@H]2C/C=C\CCN(C2=O)[C@@H](Cc2ccc(C)cc2)C(=O)N(C)CC(=O)N[C@@H](CCc2cc(F)c(C(F)(F)F)c(F)c2)C(=O)N2C[C@H](OCC)C[C@H]2C(=O)NC2(CC(C)(C)C2)C(=O)N(C)[C@@H](CC(F)(F)F)C(=O)N(C)[C@H](C(=O)N(C)C)CC(=O)N1C [PP2993] | 14.1 nM |  |  |  |  | A (a compound having 10 or more and less than 20 is denoted as A) | A (a compound having 10 or more and less than 20 is denoted as A) |
| CC[C@H](C)[C@@H]1NC(=O)[C@H](CC(C)C)NC(=O)C[C@@H](C(=O)N2CCOCC2)N(C)C(=O)[C@H](C2CCCC2)N(C)C(=O)C2(CCCC2)NC(=O)[C@@H]2CCCN2C(=O)[C@H](CCc2cc(F)c(C(F)(F)F)c(F)c2)NC(=O)CN(C)C(=O)[C@H](Cc2ccc(C(F)(F)F)cc2)N2CCCC[C@@H](C2=O)N(C)C(=O)CN(C)C1=O [PP0590] | 20.9 nM | B (a compound having 3 or more and less than 10 is denoted as B) | C (A compound having a KD ratio of 0.1 or more and less than 3 is denoted as C) |  |  |  |  |
| CCCN1C(=O)CN(C)C(=O)CN(C)C(=O)[C@H]([C@@H](C)CC)NC(=O)[C@H](CC(C)C)N(C)C(=O)C[C@@H](C(=O)N2CCOCC2)N(C)C(=O)[C@H](C2CCCC2)N(C)C(=O)C2(CCCC2)NC(=O)[C@@H]2COCCN2C(=O)[C@H](CCc2ccc(C(F)(F)F)c(Cl)c2)NC(=O)CN(C)C(=O)[C@@H]1Cc1ccc(C(F)(F)F)cc1 [PP0265] ([NMeL]I[Sar][Sar][NPrPhe(4-CF3)][Sar][hPhe(3-Cl-4-CF3)][Morpholine(3S-CO)][Ac5c][NMeGly(cPent)][NMeD]-Morpholide; lactam N-11) | 13.3 nM |  |  |  |  | C (A compound having a KD ratio of 0.1 or more and less than 3 is denoted as C) | B (a compound having 3 or more and less than 10 is denoted as B) |
